Here are results for five compounds from patent US20260166021A1, “POLYMORPHIC FORMS OF A SOLUBLE EPOXIDE HYDROLASE INHIBITOR AND FORMULATIONS THEREOF” (EicOsis, LLC, priority 2022, published 2026).

Series [1] in a line: Particle size analysis (Malvern particle sizer, dry method; optical microscopy). The series is classed as physicochemical. Particulars: for Size range / birefringence / crystal shape: polarized-light microscopic images. As for the experimental part:
Particle size was first analyzed with optical microscopy.
Particle size was also analyzed with a dry-method using a Malvern 300 particle sizer equipped with a standard energy venturi and utilizing 2.5 bar, 3.0 bar, and 3.5 bar air pressure. […] One possible explanation is that the insufficient energy was provided to break up particle agglomerations.
Based on these findings, particle size analysis was repeated at 2.5, 3.0, and 3.5 bar using a higher energy venturi to ensure the break-up of the potential agglomerates. The detailed particle sizing data using high-energy venturi are summarized in TABLE 26 and in FIGS. 114-119, with FIGS. 114-116 corresponding to 2.5, 3.0, and 3.5 bar analyses of unmilled Form D and FIGS. 117-119 corresponding to 2.5, 3.0, and 3.5 bar analyses of micronized Form D, respectively. While the data remained bimodal, indicating incomplete break-up of particle agglomerates, the D90 of micronized material measured below 6 μm, in closer agreement with the optical analyses.

A short description of series [2]: Differential scanning calorimetry (DSC): heat of fusion, thermal events. The series is classed as physicochemical. The conditions noted are these: DSC thermogram of lot. As for the experimental part: Differential scanning calorimetry analyses were performed on each sample “as is.” Unless otherwise specified, samples were weighed in an aluminum pan, covered with a pierced lid, and then crimped and analyzed from 30-300° C. ramped at 10° C./min.
The DSC data were used to determine the heat of fusion for Forms A, B, D, and F, based on their heats of fusion as measured during conversion from Form C.
On the technique in general: DSC measures the heat that a sample takes up or gives off during a temperature scan.

The nature of series [3]: Thermal gravimetric analysis (TGA). In kind it is physicochemical. Particulars: TGA thermogram of lot. The procedure:
Thermal gravimetric analyses were performed on each sample “as is.” Unless otherwise noted, samples were weighed in an alumina crucible and analyzed from 30-350° C. at 10° C./min.
Form C weight loss at 39° C.-50° C. likely reflected methanol loss.

Series [4] can be described thus: Moisture-sorption analysis (DVS). In kind it is physicochemical. The conditions noted are these: dynamic vapor sorption. The procedure:
Gravimetric moisture sorption experiment was performed on all materials by first holding the sample at 40% RH and 25° C. until an equilibrium weight was reached or for a maximum of 4 h. The sample was then subjected to an isothermal (25° C.) adsorption scan from 40% to 90% R H in steps of 10% RH. The sample was allowed to equilibrate to an asymptotic weight at each point for a maximum of 4 h. Following adsorption, a desorption scan from 90% to 0% RH (at 25° C.) was run in steps of −10% R H allowing a maximum of 4 h for equilibration to an asymptotic weight. An adsorption scan was then performed from 0% RH to 40% RH in steps of +10% R H. The sample was then dried for more than 2 h at 60° C. 0% R H and the resulting solid analyzed by XRD.
FIGS. 88-92 provide physical analyses of lot 1. […] FIG. 90 provides a modulated DSC thermogram of lot 1, and identifies a glass transition temperature midpoint of around 48.5° C. […] FIG. 92 provides dynamic vapor sorption plots of lot 1, indicating 2.49 weight percent water vapor adsorption at 90% relative humidity, 1.25 weight percent water vapor adsorption at 60% relative humidity, and close to complete water vapor desorption at 0% relative humidity.
FIG. 95 provides polarized-light microscope images of lot 2 at 200× magnification, with 50 and 100 μm scales shown. […] FIG. 96 provides dynamic vapor sorption plots of lot 2, indicating 3.99 weight percent water vapor adsorption at 60% relative humidity, 4.12 weight percent water vapor adsorption at 90% relative humidity, and close to complete water vapor desorption at 0% relative humidity.

Series [5] can be described thus: PEG-stability analyses: Form C/Form D mixture slurried in PEG300 with water. The series is classed as physicochemical. Particulars: H2O:PEG 300 = 50%:50%. The procedure:
Of particular interest was whether Form D would convert to a hydrate (e.g., Form C) in the presence of water. To investigate the critical water concentration for phase interconversion between Pattern C and D, a series experiments were designed (as summarized in TABLE 16). A 1:1 mixture of Forms C and D was prepared and slurried in PEG 300 with different levels of water concentrations. Phase transformations were monitored with XRD, and are summarized in FIG. 85, which (from top to bottom) provides XRD of Form C, Form D, the mixture following incubation in PEG300 containing 75% water, the mixture following incubation in PEG300 containing 50% water, the mixture following incubation in PEG300 containing 25% water, the mixture following incubation in PEG300 containing 10% water, and the mixture following incubation in PEG300 containing 5% water. […] Form D is the stable form in PEG300 with less than 50% water.

A short description of series [6]: Crystallization of Formula (I) in single- and binary-solvent systems (resultant XRD pattern). As for the experimental part:
Formula (I) crystallization was first analyzed in single-solvent systems lacking antisolvent. […] Fast cooling was performed by placing the vials in a 4° C. refrigerator for 24 hours, while slow cooling was performed by decreasing the temperatures of the vials by 20° C./h with stirring. The resulting solids were isolated by centrifuge filtration through […] centrifuge filters. When solids were not produced, the solution was evaporated under nitrogen as an additional attempt to obtain solid. All obtained solids were analyzed by XRD to determine the solid pattern.
Formula (I) recrystallization was then tested with binary-solvent systems containing water, n-heptane, or c-hexane as antisolvent. […] Anti solvents were added drop-wise at the same temperature until precipitate was observed or the vial volume was reached (˜7 mL). The vials were quickly cooled to 4° C. or slowly cooled by 20° C./hour as in the single-solvent recrystallizations. The resulting solids were isolated by centrifuge filtration. The samples without precipitation were evaporated to dryness under a gentle stream of nitrogen gas as an additional attempt to obtain solid. All obtained solids were analyzed by XRD to determine the solid form. […]

Series [7] can be described thus: Bulk and tapped density (tap density tester). The series is classed as physicochemical. Particulars: listed as micronixed form. The text has this: Before milling, Form D was screened through a 30-micron mesh sieve. Then, Form D micronized using a 2-inch jet mill 70 psig feed pressure, 40 psig grinding pressure, and a 4.3 g/min powder feed rate. The micronization process provided a 69% yield and 95.6% crystallinity relative to the unmilled material.

Turning to `CC[C@H](C)C(=O)N1CCC(NC(=O)Nc2ccc(OC(F)(F)F)c(F)c2)CC1` [lot 1], in series [1], the Size range result is on record as “Size range; 5-80 μm;”, the birefringence result is on record as “Birefringent” and the crystal shape result is recorded as “Irregular plate;”. For the same compound, in series [2], the “Endotherm (likely dehydration of bound water)” value came out at 63 °C and the “Exotherm (crystallization of Form B)” value is 115 °C (crystallization of. Moreover, in series [3], the “wt change at 233° C.” value worked out at 99% wt change and the “wt change below 100° C.” value is 0% wt change. In addition, in series [4], the “water vapor adsorption at 60% RH” value is on record as 60% RH 1.25 wt % and the “water vapor adsorption at 90% RH” value is on record as 90% RH 2.49 wt %.
Regarding `CC[C@H](C)C(=O)N1CCC(NC(=O)Nc2ccc(OC(F)(F)F)c(F)c2)CC1` [lot 2], in series [1], the Size range entry is reported as “Size range; 5-200 μm;”, the birefringence result is “Birefringent” and the crystal shape result is given as “Irregular plate;”. In series [2], the “Endotherm (likely dehydration of bound water)” value is 79 °C (likely dehydration of, the “Endotherm (melting of Form A)” value is 111 °C (melting of Form A), and the “Exotherm (crystallization of Form B)” value was 117 °C (crystallization of. Besides, in series [3], the “wt change at 233° C.” value came out at 96% wt change and the “wt change below 100° C.” value worked out at 2.9% wt change. In addition, in series [4], the “water vapor adsorption at 60% RH” value is 60% RH 3.99 wt % and the “water vapor adsorption at 90% RH” value came to 90% RH 4.12 wt %.
Regarding `CC[C@H](C)C(=O)N1CCC(NC(=O)Nc2ccc(OC(F)(F)F)c(F)c2)CC1` [C (50%) + D (50%)], the “XRD Pattern at Equilibrium” value in series [5] is “C (major) + D (minor)”.
As to `CC[C@H](C)C(=O)N1CCC(NC(=O)Nc2ccc(OC(F)(F)F)c(F)c2)CC1` [Formula (I) Form C], the “Formula (I) Product Form” value in series [6] (Acetone (0.1)/n-Heptane (0.4), 50° C., Slow, ppt/evaporate) is listed as “B + E”; in series [6] (DMSO (0.1)/Water (0.05), 70° C., Slow, ppt/filtered), “D + F”; in series [6] (EtOH (0.1)/c-Hexane (6), 70° C., Slow, clear/) it was “F + H”; in series [6] (IPA (0.1)/c-Hexane (2), 70° C., Fast, ppt/filtered), “H + F”; in series [6] (NMP (0.1)/c-Hexane (6), 70° C., Slow, clear/evaporate), “D + F”.
In series [7], `CC[C@H](C)C(=O)N1CCC(NC(=O)Nc2ccc(OC(F)(F)F)c(F)c2)CC1` [micronized Form D, (S)-1-(3-fluoro-4-(trifluoromethoxy)phenyl)-3-(1-(2-methylbutanoyl)piperidin-4-yl)urea] registered a bulk density of 0.20 g/mL and a tapped density of 0.22 g/mL. The D90 particle size result in series [1] (higher energy venturi, 2.5, 3.0 and 3.5 bar) is reported as “below 6 μm”.
